According to patent US6713505B2, “spla2 inhibitors” (Eli Lilly and Company, priority 2000, dated 2004):

Biological target: T1, recombinant human secreted phospholipase A2 (Homo sapiens, UniProt P14555)
T1 sequence (P14555 21-144): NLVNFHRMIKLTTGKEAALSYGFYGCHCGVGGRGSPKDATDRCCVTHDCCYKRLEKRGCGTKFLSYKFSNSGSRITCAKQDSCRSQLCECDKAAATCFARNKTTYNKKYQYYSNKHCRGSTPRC
Assay: chromogenic assay for inhibitors of recombinant human secreted phospholipase A2
Format: biochemical
Details: diheptanoyl thio-PC substrate, pH 7.5, 40° C. for 30 minutes, absorbance at 405 nanometers, triplicate
Excerpt: The following chromogenic assay procedure was used to identify and evaluate inhibitors of recombinant human secreted phospholipase A2. The assay described herein has been adapted for high volume screening using 96 well microtiter plates. A general description of this assay method is found in the article, “Analysis of Human Synovial Fluid Phospholipase A2 on Short Chain Phosphatidylcholine-Mixed Micelles: Development of a Spectrophotometric Assay Suitable for a Microtiterplate Reader”, by Laure J. Reynolds, Lori L. Hughes, and Edward A Dennis, Analytical Biochemistry, 204, pp. 190-197, 1992 (the disclosure of which is incorporated herein by reference):
Adjust pH to 4.5 with acetic acid
DTNB—5,5′-dithiobis-2-nitrobenzoic acid
RACEMIC DIHEPTANOYL THIO—PC
racemic 1,2-bis(heptanoylthio)-1,2-dideoxy-sn-glycero-3-phosphorylcholine
TRITON X-100™ prepare at 6.249 mg/ml in reaction buffer to equal […].
A measured volume of racemic dipheptanoyl thio PC supplied in chloroform at a concentration of 100 mg/ml is taken to dryness and redissolved in 10 millimolar TRITON X-100™ nonionic detergent aqueous solution. Reaction Buffer is added to the solution, then DTNB to give the Reaction Mixture.
The reaction mixture thus obtained contains 1 mM diheptanoly thio-PC substrate, 0.29 mm Triton X-100™ detergent, and 0.12 mm DTMB in a buffered aqueous solution at pH 7.5.
1. Add 0.2 ml reaction mixture to all wells;
2. Add 10 ul test compound (or solvent blank) to appropriate wells, mix 20 seconds;
3. Add 50 nanograms of sPLA2 (10 microliters) to appropriate wells;
4. […]
5. Read absorbance of wells at 405 nanometers with an automatic plate reader.
Tests were done in triplicate. […] Compounds initially found to be active were re-assayed to confirm their activity and, if sufficiently active, IC50 values were determined. […] In all cases, % inhibition measured at 405 nanometers generated by enzyme reactions containing inhibitors relative to the uninhibited control reactions was determined. […] IC50 values were determined by plotting log concentration versus inhibition values in the range from 10-90% inhibition.

| Structure (SMILES) | IC50 [µM] |
| --- | --- |
| CCc1sc2cccc(OCC(=O)O)c2c1C(=O)C(N)=O [Example 1, (3-aminooxalyl-2-ethylbenzo[b]thiophen-4-yloxy)acetic acid] | 1.41 |
| CCc1sc2cccc(OCC(=O)N[C@@H](CC(C)C)C(=O)OC)c2c1C(=O)C(N)=O [Example 2, 2(S)-[2-[(3-aminooxalyl-2-ethylbenzo [b]thiophen-4-yl)oxy]acetylamino]-4-methylpentanoic cid methylester] | 64.8 |
| CCc1sc2cccc(OCC(=O)N[C@@H](CC(C)C)C(=O)O)c2c1C(=O)C(N)=O [Example 3, 2(S)-[2-[(3-aminooxalyl-2-ethylbenzo [b]thiophen-4-yl)oxy]acetylamino]-4-methylpentanoic acid] | 10.6 |
